In patent publication US4100278A, “Novel benzazepines” (Roussel Uclaf, priority 1976, dated 1978):
Counter-ions that a name gives are not always drawn.

Experiments:
[1] = Acute toxicity (LD50) in mice; conditions: mouse, in vivo, ip, intraperitoneal, mortality at 48 hours
Method: The LD50, dose which killed 50% of mice was determined by intraperitoneal administration of the test compounds and the mortality rate was determined of 48 hours.

[2] = tested on: effects of 5-hydroxytryptophane (5 HTP); assay: Potentialization of effects of 5 HTP in mice (trembling); format: in vivo; conditions: Mus musculus, test product i.p. one hour before 200 mg/kg 5 HTP i.p., observed every 15 minutes for an hour, read-out: MAD (minimum active dose)
Description: The administration of 5-hydroxytryptophane (5 HTP) to mice pretreated with an antidepressive agent induces in the animals a particular behavoir, namely the appearance of trembling.

[3] = tested on: L-dopa effects; assay: Potentialization of L-dopa effects in mice pretreated with iproniazide; format: in vivo; conditions: Mus musculus, ip; male mice, test product i.p. one hour before L-dopa 100 mg/kg i.p.; iproniazide 75 mg/kg i.p. 18 hours before; read-out: ED50 (dose at which 50% of the L-dopa effects were potentialized)
Method: The administration of L-dopa to mice pretreated with iproniazide 18 hours earlier produces a certain number of symptoms: muscular hypertonicity, hyperactivity, agitation, crying, aggressiveness, salivation and exophthalmia. The intensity of these effects is potentialized by administration of an antidepressive agent one hour before the L-dopa administration.
Male mice received intraperitoneally 75 mg/kg of iproniazide 18 hours before the start of the test and the test products in aqueous solution were administered intraperitoneally in increasing doses. The L-dopa was intraperitoneally administered at a dose of 100 mg/kg one hour later and the symptoms observed 15 and 30 minutes after the L-dopa administration were evaluated on a scale of 0 to 3 for each mouse and the values were totaled for each dose.

[4] = tested on: uptake of serotonine (5 HT), purified synaptosoma from whole brain; assay: Inhibition of uptake of serotonine in vitro (Test No. 1); format: biochemical, female rats; conditions: rat brain synaptosoma, 37° C, 5 minutes, C^14 - 5 HT 10^-7 M; read-out: 50% inhibiting concentration (IC 50) of uptake of C^14 - 5 HT (Test No. 1)
Method: The inhibition of uptake of serotonine (5 HT) was measured with purified synaptosoma prepared by starting from the whole brain of female rats 19-21 days old by the technique of Kannengiesser et al [Biochemical Pharmacology, Vol. 22 (1973), p. 73]. The test products at different concentrations were incubated with the preparation at 37° C for 5 minutes in the presence of C^14 - 5 HT at a concentration of 10^-7 M. The 50% inhibiting concentration (IC 50) of the products was graphically determined as the dose that inhibited by 50% the uptake of C^14 - 5 HT in the synaptosma.

[5] = tested on: effects of nialamide (inhibitor of monoamine oxidase) - hyperactive motility; assay: Potentialization of effects of IMAO (nialamide), actimetric counting in mice; format: in vivo; design: key to the marks not given beside the values; conditions: 30 minutes after nialamide 100 mg/kg i.p., counts totaled every 30 minutes for 6 hours
[6] = tested on: uptake of serotonine (C^14 - 5 HT), brain synaptosoma; assay: Inhibition of uptake of serotonine in vivo (Test No. 2); conditions: Rattus norvegicus, ip; female rats 19 to 21 days old, 10 mg/kg i.p., brain removed after 30 minutes; read-out: % inhibition of uptake of C^14 - 5 HT with respect to the controls (Test No. 2)
Method: The test products were administered intraperitoneally to groups of female rats 19 to 21 days old at doses from 5 to 20 mg/kg. After 30 minutes, the brain was removed and the synaptosoma was prepared and was placed in an incubator in the presence of C^14 - 5 HT as indicated previously. […] The activity is expressed in % inhibition with respect to the controls at a dose of 10 mg/kg and the results are reported in Table V.

CNC1CCc2ccccc2N(C)C1 (centres unmarked) [Example 5, di-[N,1-dimethyl-2,3,4,5-tetrahydro-[1H]-1-benzazepine-3-amine]-fumarate]
LD50 at 48 h [1]: 150 mg/kg | minimal effective dose [2]: 50 mg/kg

CNC1CCc2ccccc2NC1 (centres unmarked) [Example 6, di-[N-methyl-2,3,4,5-tetrahydro-[1H]-1-benzazepine-3-amine] fumarate]
LD50 at 48 h [1]: 250 mg/kg | minimal effective dose [2]: 20 mg/kg

CNCC1CCc2ccccc2N(C)C1 (centres unmarked) [Example 3, Di-[N, 1-dimethyl-2,3,4,5-tetrahydro-[1H]-1-benzazepine-3-methanamine]-fumarate]
ED50 [3]: 20 mg/kg | LD50 at 48 h [1]: 250 mg/kg | IC50 [4]: 1300 nM | Potentialization of nialamide for the dose ([5]; 5 mg/kg i.p.): ++ | inhibition at 10 mg/kg [6]: 40% | minimal effective dose [2]: 50 mg/kg

NCC1CCc2ccccc2NC1.O=C(O)/C=C/C(=O)O (centres unmarked) [Example 1, 2,3,4,5-tetrahydro-[1H]-1-benzazepine-3-methanamine fumarate]
ED50 [3]: 10 mg/kg | LD50 at 48 h [1]: 300 mg/kg | Potentialization of nialamide for the dose ([5]; 1 mg/kg i.p.): ++ | minimal effective dose [2]: 50 mg/kg

NC1CCc2ccccc2NC1 (centres unmarked) [Example 4, di-[2,3,4,5-tetrahydro-[1H]-1-benzazepine-3-amine]-fumarate]
ED50 [3]: 50 mg/kg | LD50 at 48 h [1]: 300 mg/kg | Potentialization of nialamide for the dose ([5]; 20 mg/kg i.p.): ++ | minimal effective dose [2]: 50 mg/kg

CNCC1CCc2ccccc2NC1.Cl.Cl (centres unmarked) [Example 2, N-methyl-2,3,4,5-tetrahydro-[1H]-1-benzazepine-3-methanamine dihydrochloride]
LD50 at 48 h [1]: 250 mg/kg | IC50 [4]: 1300 nM | Potentialization of nialamide for the dose ([5]; 5 mg/kg i.p.): +++ | inhibition at 10 mg/kg [6]: 58% | minimal effective dose [2]: 10 mg/kg
